The values that follow come from patent publication US11279695B2, “Andrographolide compound and method for treatment or prevention of fibrotic disease using the same” (Zhengzhou University, priority 2018, dated 2022).

For series [1], the system named is human renal proximal tubule epithelial cells HK-2. Put plainly: In vitro cytotoxicity MTT assay on HK-2 cells. In kind it is cell-based. Conditions: 48 h, 30.00 μM equivalent dose, FIGS. 6A-6B. As to the method:
HK-2 cells were cultured in a DMEM/F12 medium containing 10% (V/V) fetal bovine serum (FBS), 100 μg/mL streptomycin, and 100 IU/mL penicillin, followed by incubation at 37° C. in a humidified atmosphere with 5% CO2.
HK-2 cells in the logarithmic growth phase were digested with 0.25% (W/V) trypsin and 0.02% EDTA (W/V), diluted into 7.0×10^4 cell/mL cell suspension with DMEM/F12 medium containing 10% (V/V) FBS, and transferred into a 96-well plate for 200 μL per well. After incubation in the 37° C. incubator with 5% CO2 for 24 hours, the medium comprising different concentration of test compounds were added into the wells. Under these conditions, the maximum final drug concentration in the assay was 30.00 μM. The experiment was performed in triplicate. After further incubation for 48 hours, other steps were the same as Example 1.

Series [2] relates to silica-induced pulmonary fibrosis in KM mice. Put plainly: Silica-induced pulmonary fibrosis in KM mice. In kind it is in vivo. Particulars: AD at equivalent dose (40 or 120 mg/kg) ig 21 days. As for the experimental part:
SPF grade KM mice, healthy, male, with a body weight of 20±2 g, were purchased from Henan Experimental Animal Center. (License No. SOCK (Yu) 2017-0001). Silica was heated at 250° C. for 1 hour to remove endotoxin. After autoclaving the heated silica was suspended in physiological saline to yield a final concentration of 75 mg/mL suspension, and stored at 4° C. for use. The suspension was shaken and sonicated for 30 minutes prior to injection.
After mice were fed ad libitum for 3 days, they were randomly divided into six groups including a sham-operated control group, a model group, different groups of the compounds of the disclosure, eight mice per group. The mice were anesthetized with intraperitoneal injection of 0.5% sodium pentobarbital (50 mg/kg). After the immobilization in a supine position, the anesthetized mice were prepared. The neck of the mice was shaved and then swabbed with iodine to sterilize the skin regions. An incision with a length of about 1 cm was made along the neck for separating bronchus. A silica suspension proportional (150 mg/kg) to the body weight, and 100 μL of air was immediately injected into the trachea through the cartilage space of mice. After the muscle was reset, the mice were quickly rotated for 2 minutes to evenly distribute the silica. […] Mice lung was collected, weighed and the pulmonary lesion was measured. […]

In series [3] the test system is hepatic fibrosis in KM mice induced by bile duct ligation (BDL). Put plainly: Hepatic fibrosis in KM mice induced by bile duct ligation (BDL). Type of series: in vivo. Particulars: 10 days, scale 0-6. As to the method: SPF grade KM mice, healthy, male, with a body weight of 20±2 g, were purchased from Henan Experimental Animal Center. (License No. SOCK (Yu) 2017-0001).
After KM mice were fed ad libitum for 3 days, they were randomly divided into multiple groups including a sham-operated control group, a model group, an AD control group, and different compound-administered groups, six mice per group. The sham operation group and the model group were administered with 0.5% Sodium CMC (Na CMC) via gavage, and the other administration groups were administered 0.5% CMC-Na suspension of the corresponding drug, and the administration lasted for 10 days. Mice should be strictly fasting with nothing but water 12 hours prior to surgery. The mice were anesthesia by intraperitoneally injecting with 0.5% sodium pentobarbital. After limb immobilization in a supine position, the anesthetized mice were prepared. The abdomen of the mice was shaved and then swabbed with iodine to sterilize the skin regions. After spreading of surgery cloth, the abdomen was opened along the abdominal wall in the midline. The duodenum was found along the stomach, then pull upwards to just separate from the common bile duct. Double-ligated with 4/0 silk thread and disconnected the common bile duct with a distance of 0.5 cm away from the hepatic hilum. Following the examination for no bleeding and bile leakage, the 3/0 silk thread continuous suture method was used to close the abdomen layer by layer. The wound was swabbed with iodine, and the mice rest in a 37° C. warm environment until the animals were fully awake. […] Drugs were administrated by gavage on an empty stomach in the morning every day, and were given daily for 10 days. The liver was quickly excised after blood collection. The collected blood was allowed to stand in an incubator 37° C. for 45 min, and then the upper serum was collected by centrifugation at 3500 rpm for 15 min at 4° C. The liver of the lower left lobe of the mice was fixed in 10 times volume of 4% paraformaldehyde fixative, and the fixative was changed after 24 h. Pathological sections were obtained after fixation. Each section was stained with hematoxylin-eosin stain (HE) and Sirius red to observe fibrosis levels and pathological change in the liver. […] Collagen deposition was measured with Sirius red staining, and positive expression was semi-quantitatively analyzed by Image-Pro Plus. […]

Where [4] appears, read: 15 mg/kg ig, model group mean score 4.25.

On to `CC1=CCC2C(C)(CO)C(O)CCC2(C)C1C=CC1=CC(=Cc2ccc(F)c(F)c2)OC1=O` (centres unmarked) [ADC-6], for which the “inhibitory effect on proliferation of HK-2 cells compared with AD” value (“inhibitory effect … compared with AD” for short) in series [1] is listed as “higher inhibitory effect on proliferation of HK-2 cells than the parent compound AD”.
`CC12CCC3C(CCC(O)C3(C)CO)C1CC(C1=CC(=Cc3ccc(Br)cc3)OC1=O)O2` (centres unmarked) [ADY-2]: in series [1], the “inhibitory effect … compared with AD” value was “higher inhibitory effect on proliferation of HK-2 cells than the parent compound AD”.
Same read-out and setting: for `CC12CCC3C(CCC(O)C3(C)CO)C1CC(C1=CC(=Cc3ccc(O)cc3)OC1=O)O2` (centres unmarked) [ADY-8] the value was “higher inhibitory effect on proliferation of HK-2 cells than the parent compound AD”.
With `C=C1CC[C@@H]2[C@](C)(CO)[C@H](O)CC[C@@]2(C)[C@@H]1C/C=C1/C(=O)OC[C@H]1O` [AD, andrographolide], the pulmonary fibrosis score in series [2] was 3.8-4.9. Besides, in series [1], the “inhibitory effect … compared with AD” value was “lower inhibitory activity against the cell proliferation”. Further, the “fibrosis pathological score for liver tissue section (mean)” value (shortened to “fibrosis pathological score”) in series [3] (15 mg/kg ig, model group mean score 4.8) is listed as 2.83; in series [3] (40 mg/kg ig, model group mean score 4.8), 2.10.
As to `COc1cccc(C=C2C=C(C3CC4C5CCC(O)C(C)(CO)C5CCC4(C)O3)C(=O)O2)c1` (centres unmarked) [ADY-7], in series [3] (setting [4]), the “fibrosis pathological score” value turned out to be 0.4.
As for `CC1=CCC2C(C)(CO)C(O)CCC2(C)C1C=CC1=CC(=Cc2ccc(F)cc2)OC1=O` (centres unmarked) [ADC-5], the “inhibitory effect … compared with AD” value in series [1] is recorded as “higher inhibitory effect on proliferation of HK-2 cells than the parent compound AD”.
Still for that read-out and setting: for `CC12CCC3C(CCC(O)C3(C)CO)C1CC(C1=CC(=Cc3ccccc3)OC1=O)O2` (centres unmarked) [ADY-5] the value was “higher inhibitory effect on proliferation of HK-2 cells than the parent compound AD”.
For the compound `COc1ccc(C=C2C=C(C3CC4C5CCC(O)C(C)(CO)C5CCC4(C)O3)C(=O)O2)cc1` (centres unmarked) [ADY-12], the “fibrosis pathological score” value in series [3] (setting [4]) is 1.4.
Take `COc1ccc(C=C2C=C(C=CC3C(C)=CCC4C(C)(CO)C(O)CCC34C)C(=O)O2)cc1` (centres unmarked) [ADC-11]: the “inhibitory effect … compared with AD” value in series [1] was “higher inhibitory effect on proliferation of HK-2 cells than the parent compound AD”.
The same measure, in the same setting: under `CC12CCC3C(CCC(O)C3(C)CO)C1CC(C1=CC(=Cc3ccc(F)c(F)c3)OC1=O)O2` (centres unmarked) [ADY-6] stands “higher inhibitory effect on proliferation of HK-2 cells than the parent compound AD”; under `CC1=CCC2C(C)(CO)C(O)CCC2(C)C1C=CC1=CC(=Cc2ccccc2O)OC1=O` (centres unmarked) [ADC-12], “higher inhibitory effect on proliferation of HK-2 cells than the parent compound AD”.
